Data: PubChem BioAssay (NCI)
Several values for one entry are separate records, joined by “and”; a condition that tells them apart may be missing. Identical values can stand only once.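 A five-concentration, 48-hour dose response in 96-well plates underlies each endpoint, interpolated linearly between surrounding concentrations. Abbreviation: GI50, concentration required for 50% inhibition of growth. Definition used: TGI = concentration required for complete inhibition of growth.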

What was measured:
Experiment in all cases: NCI tumour cell line growth inhibition, 48 h
DLD-1 colon = test system: DLD-1 colon
RXF-631 renal = test system: RXF-631 renal
XF 498 CNS = test system: XF 498 CNS
HOP-18 NSCLC = test system: HOP-18 NSCLC
M19-MEL melanoma = test system: M19-MEL melanoma
SNB-78 CNS = test system: SNB-78 CNS
MDA-MB-435 = test system: MDA-MB-435
T-47D breast = test system: T-47D breast
SN12K1 renal = test system: SN12K1 renal
P388/ADR leukemia = test system: P388/ADR leukemia
MDA-N = test system: MDA-N

Structure (SMILES)	TGI (DLD-1 colon)	TGI (RXF-631 renal)	TGI (XF 498 CNS)	TGI (HOP-18 NSCLC)	TGI (M19-MEL melanoma)	TGI (SNB-78 CNS)	other results
O=c1nc2occc2cn1C1CC(O)C(CO)O1 (centres undefined)	> 100 µM	> 100 µM	> 100 µM	> 100 µM	> 100 µM	> 100 µM	–
O=C1CCCC/C(=C/c2ccccc2)N1	> 100 µM	–	> 100 µM	> 100 µM	> 100 µM	> 100 µM	–
Cc1ccccc1N1C(=O)/C(=C/c2ccc(N(CCC#N)CCC#N)cc2)N=C1c1cc([N+](=O)[O-])ccc1Cl	> 100 µM	> 100 µM	–	> 100 µM	–	> 100 µM	–
Cc1ccc(S(=O)(=O)NCC2CCCCC2=O)cc1 (centres undefined)	–	–	> 100 µM	> 100 µM	> 100 µM	> 100 µM	–
O=C(Nc1nc2ncn(CCI)c2c(=O)[nH]1)c1ccccc1	–	> 100 µM	> 61.2 µM	> 100 µM	> 100 µM	> 100 µM	–
S=C(N/N=C/c1ccco1)NC12CC3CC(CC(C3)C1)C2	> 100 µM	–	> 100 µM	> 100 µM	> 100 µM	> 100 µM	–
O=C1c2ccccc2C(=O)C1(Cl)C1(S(=O)(=O)O)c2ccccc2-c2ccccc21	> 100 µM	–	> 100 µM	> 100 µM	> 100 µM	> 100 µM	–
CCCCN(CCCC)CC(C(=O)Nc1ccc([N+](=O)[O-])cc1[N+](=O)[O-])/C(C)=N\NC(=S)NN (centres undefined)	> 100 µM	–	> 100 µM	–	> 100 µM	–	–
Cc1cc(Br)cc(C)c1NC(=O)C(=O)C(C(=O)c1ccc2ccccc2c1)C1OC(=O)c2ccccc21 (centres undefined)	34.2 µM	> 100 µM	18 µM	41.3 µM	46.3 µM	–	–
CSc1nc2c(nc(C)c(=O)n2C2OCC(OC(C)=O)C(OC(C)=O)C2OC(C)=O)c(=O)[nH]1 (centres undefined)	> 100 µM	–	> 100 µM	–	> 100 µM	–	–
CC1OC(n2cc(F)c(=O)[nH]c2=O)C=CC1O (centres undefined)	> 100 µM	> 100 µM	> 100 µM	> 100 µM	> 100 µM	> 100 µM	–
CC(C)(C)[SiH]12(OC(C(F)(F)F)(C(F)(F)F)c3ccccc31)OC(C(F)(F)F)(C(F)(F)F)c1ccccc12	13.3 µM	10.7 µM	24.3 µM	9.83 µM	26.4 µM	25.3 µM	–
COC(=O)C(C(=O)C(=O)Nc1cccc(OC)c1)c1cnc2ccccc2n1 (centres undefined)	> 100 µM	> 100 µM	> 100 µM	> 100 µM	–	> 100 µM	–
O=[N+]([O-])c1nccn1CC(O)c1ccc(F)cc1 (centres undefined)	–	> 100 µM	> 100 µM	> 100 µM	> 100 µM	–	–
C=C(C=O)[C@@H]1C2OC(=O)C(=C)[C@@H]2CC(O)[C@@]1(C)CC (some centres undefined)	9.7 µM	37.7 µM	–	41.3 µM	14.3 µM	24.9 µM	–
O=c1n(CC2CO2)c(=O)n(CC2CO2)c(=O)n1CC1CO1 (centres undefined)	143 µM	–	–	202 µM	113 µM	199 µM	TGI (MDA-MB-435): 63.8 µM and > 100 µM; GI50 (T-47D breast): 7.66 µM and 10 µM; TGI (T-47D breast): 70.3 µM and > 100 µM; TGI (SN12K1 renal): 174 µM; TGI (P388/ADR leukemia): 275 µM; GI50 (MDA-N): 26.5 µM; TGI (MDA-N): 72 µM and 82.6 µM
CC(O)C(N=Cc1ccccc1[O-])C(=O)[O-].CC(O)C(N=Cc1ccccc1[O-])C(=O)[O-].[Co+2] (centres undefined)	> 100 µM	> 100 µM	> 100 µM	> 100 µM	> 100 µM	> 100 µM	GI50 (DLD-1 colon): 83.7 µM; GI50 (RXF-631 renal): > 100 µM; GI50 (XF 498 CNS): > 100 µM; GI50 (HOP-18 NSCLC): 70.8 µM; GI50 (M19-MEL melanoma): 78.8 µM; GI50 (SNB-78 CNS): > 100 µM
O=S(O)CCCCSSCC(O)C(O)CSSCCCCS(=O)O (centres undefined)	> 100 µM	> 100 µM	35.9 µM and 26 µM	> 100 µM	15.6 µM and 29.7 µM	97.7 µM and > 100 µM	–
CCN(CC)CCOc1ccc(/C=C(\C#N)c2ccc(OCCN(CC)CC)cc2)cc1	> 83.3 µM	–	29.3 µM	57.3 µM	28.9 µM	> 87.5 µM	–
O=S(=O)([O-])c1ccc2c(c1)-c1nc-2nc2[n-]c(nc3nc(nc4[n-]c(n1)c1ccc(S(=O)(=O)[O-])cc41)-c1cc(S(=O)(=O)[O-])ccc1-3)c1ccc(S(=O)(=O)[O-])cc21.[Cu+2].[Na+]	> 100 µM	> 100 µM	> 100 µM	> 100 µM	> 100 µM	> 100 µM	GI50 (MDA-MB-435): > 100 µM; TGI (MDA-MB-435): > 100 µM; GI50 (DLD-1 colon): 7.65 µM; GI50 (RXF-631 renal): > 86.8 µM; GI50 (XF 498 CNS): 68.3 µM; GI50 (T-47D breast): 75.6 µM; TGI (T-47D breast): > 100 µM; GI50 (HOP-18 NSCLC): > 100 µM; GI50 (M19-MEL melanoma): 6.21 µM; GI50 (MDA-N): > 100 µM; TGI (MDA-N): > 100 µM; GI50 (SNB-78 CNS): > 100 µM
CC(C)(C)OC(=O)NCC(=O)OCc1ccccc1	> 100 µM	–	> 100 µM	–	> 100 µM	> 100 µM	–
CCCCOC(=O)C1C(c2ccc(Cl)cc2)NC(c2ccc(Cl)cc2)C(C(=O)OCCCC)S1(=O)=O (centres undefined)	> 100 µM	–	> 100 µM	> 100 µM	> 100 µM	–	–
O=[n+]1c2c(n([O-])c3ccccc31)CCCCCCCCCC2	> 100 µM	–	> 100 µM	–	> 100 µM	> 100 µM	–
COC(=O)c1cc2c3ccccc3n(C(C)=O)c2cn1	> 100 µM	> 100 µM	89.9 µM	> 100 µM	> 100 µM	> 100 µM	–
O=C1c2ccccc2C2(Br)C(=O)c3ccccc3C12 (centres undefined)	> 100 µM	28.1 µM	–	> 100 µM	> 100 µM	–	–
COc1ccc(OC)c(NC(=O)C(=O)NNC(=O)c2sc(NNC(C)=O)nc2C)c1	–	–	85.3 µM	–	> 100 µM	> 100 µM	–
COC(=O)C12C3C4C1C1C2C3C41C(=O)OC(C)(C)C (centres undefined)	> 72.3 µM	> 100 µM	> 100 µM	> 100 µM	> 100 µM	> 100 µM	–
O=C(O)CNc1cc(-c2ccccc2)nc(NCC(=O)O)n1	> 100 µM	> 100 µM	> 100 µM	> 100 µM	> 100 µM	> 100 µM	–
O=C1CN=C(C[N+](=O)[O-])c2ccccc21	> 100 µM	> 100 µM	–	> 100 µM	–	> 100 µM	–
CS(=O)(=O)N/N=C/CN1C(=O)c2ccccc2C1=O	> 100 µM	–	> 100 µM	> 100 µM	> 100 µM	> 100 µM	–
